This note sets out measurements from the supplement of paper PMC8967900.

Each structure is given as a SMILES string.
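Further: ALL cell lines in 384-well plates, five doses spanning 10,000-fold, each plate scaled between vehicle and 100 µmol/L benzalkonium chloride controls, sDSS an adapted area-under-curve metric.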

The first assay deals with 380. In words: selective drug sensitivity score (sDSS, relative to normal bone marrow) (sDSS (score)); higher = more potent and effective on the cell line relative to normal bone marrow cells. Particulars: 72 h.
As for `Cc1c(-c2ccc(N3CCc4cccc(C(=O)Nc5nc6ccccc6s5)c4C3)nc2C(=O)O)cnn1CC12CC3CC(CC(C3)C1)C2` (top concentration 1000 nM), the “selective drug sensitivity score” value is 3.94.

As to `O=C(NOC[C@H](O)CO)c1ccc(F)c(F)c1Nc1ccc(I)cc1F` (top concentration 1000 nM), the “selective drug sensitivity score” value came out at 2.24.

Take `CO[C@@H](C)Cn1c(=O)n(C)c2cnc3ccc(-c4cncc(C(C)(C)O)c4)cc3c21` (top concentration 2500 nM): the “selective drug sensitivity score” value is 10.3.

On to `Cc1cccc(CC(=O)N2CCc3c2ccc(-c2cn(C)c4ncnc(N)c24)c3F)n1` (top concentration 2500 nM), for which the “selective drug sensitivity score” value was -0.68.

For `CNC(=O)c1ccccc1Nc1nc(Nc2ccc3c(c2OC)CCC[C@H](N2CCN(CCO)CC2)C3)ncc1Cl` (top concentration 5000 nM), the “selective drug sensitivity score” value came to 2.06.

With `COc1cc2ncnc(Oc3cccc(NC(=O)Nc4cc(C(C)(C)C(F)(F)F)on4)c3)c2cc1OC` (top concentration 10000 nM), the “selective drug sensitivity score” value is 0.

With `C[C@@H](Oc1cc(-n2cnc3ccc(CN4CCN(C)CC4)cc32)sc1C(N)=O)c1ccccc1C(F)(F)F` (top concentration 10000 nM), the “selective drug sensitivity score” value came out at 25.5.

Turning to `Nc1nccc(-c2c(-c3ccc(F)cc3)ncn2C2CCCCC2)n1` (top concentration 10000 nM), the “selective drug sensitivity score” value turned out to be 1.4.

Regarding `O=C(O)c1ccc(-c2c[nH]c3ncc(-c4ccccc4)cc23)cc1C1CCCC1` (top concentration 10000 nM), the “selective drug sensitivity score” value turned out to be 0.86.

As for `C[C@@H]1CN(CC(=O)Nc2ccc3c(c2)Cc2cccc(-c4cc(=O)cc(N5CCOCC5)o4)c2S3)C[C@H](C)O1` (top concentration 25000 nM), the “selective drug sensitivity score” value is -1.88.

As to `COc1ccc2[nH]cc(/C=C3\C(=O)Nc4ccc(NC(=O)CCN5CCCCC5)cc43)c2c1` (top concentration 50000 nM), the “selective drug sensitivity score” value is -4.62.

As to `Cc1nn(C)c(COc2ccc(N3CCN(S(=O)(=O)N(C)C)CC3)cc2)c1-c1cccc2c(CCCOc3cccc4ccccc34)c(C(=O)O)n(CCN3CCOCC3)c12` (top concentration 50000 nM), the “selective drug sensitivity score” value came to 0.86.

For `C[C@H](Nc1ncnc2[nH]cnc12)c1cc2ccc(F)cc2nc1-c1ccccn1` [AMG319] (top concentration 1000 nM), the “selective drug sensitivity score” value was -1.02.

`C=CCn1c(=O)c2cnc(Nc3ccc(N4CCN(C)CC4)cc3)nc2n1-c1cccc(C(C)(C)O)n1` [AZD1775] (top concentration 10000 nM): the “selective drug sensitivity score” value amounted to 10.8.

`NC(=O)Nc1cc(-c2cccc(F)c2)sc1C(=O)N[C@H]1CCCNC1` [AZD7762] (top concentration 1000 nM): the “selective drug sensitivity score” value was 1.

On to `Cc1cc([C@@H](C)Nc2ccccc2C(=O)O)c2nc(N3CCOCC3)cc(=O)n2c1` [AZD-6482] (top concentration 2500 nM), for which the “selective drug sensitivity score” value came to 4.72.

Regarding `CN(C)Cc1c(C(=O)NCCOc2ccc(C(=O)NO)cc2)oc2ccccc12` [Abexinostat] (top concentration 10000 nM), the “selective drug sensitivity score” value worked out at 7.56.

Take `S=C(NCc1ccc2c(c1)OCO2)N1CCN(c2ncnc3c2oc2ccccc23)CC1` [Amuvatinib] (top concentration 10000 nM): the “selective drug sensitivity score” value stood at 3.76.

Consider `CC(=O)OC[C@H]1O[C@@H]([S-])[C@H](OC(C)=O)[C@@H](OC(C)=O)[C@@H]1OC(C)=O.CCP(CC)CC.[Au+]` [Auranofin] (top concentration 2500 nM), for which the “selective drug sensitivity score” value stood at 12.3.

In the next assay the test system is 697. The assay is described as above. Particulars: 72 h.
`Cc1c(-c2ccc(N3CCc4cccc(C(=O)Nc5nc6ccccc6s5)c4C3)nc2C(=O)O)cnn1CC12CC3CC(CC(C3)C1)C2` (top concentration 1000 nM): the “selective drug sensitivity score” value was -1.76.

As to `O=C(NOC[C@H](O)CO)c1ccc(F)c(F)c1Nc1ccc(I)cc1F` (top concentration 1000 nM), the “selective drug sensitivity score” value was 0.14.

For the molecule `CO[C@@H](C)Cn1c(=O)n(C)c2cnc3ccc(-c4cncc(C(C)(C)O)c4)cc3c21` (top concentration 2500 nM), the “selective drug sensitivity score” value was determined as 9.78.

As for `Cc1cccc(CC(=O)N2CCc3c2ccc(-c2cn(C)c4ncnc(N)c24)c3F)n1` (top concentration 2500 nM), the “selective drug sensitivity score” value worked out at 3.42.

For `CNC(=O)c1ccccc1Nc1nc(Nc2ccc3c(c2OC)CCC[C@H](N2CCN(CCO)CC2)C3)ncc1Cl` (top concentration 5000 nM), the “selective drug sensitivity score” value was found to be 2.86.

As for `COc1cc2ncnc(Oc3cccc(NC(=O)Nc4cc(C(C)(C)C(F)(F)F)on4)c3)c2cc1OC` (top concentration 10000 nM), the “selective drug sensitivity score” value worked out at 10.4.

As to `C[C@@H](Oc1cc(-n2cnc3ccc(CN4CCN(C)CC4)cc32)sc1C(N)=O)c1ccccc1C(F)(F)F` (top concentration 10000 nM), the “selective drug sensitivity score” value was found to be 20.5.

On to `Nc1nccc(-c2c(-c3ccc(F)cc3)ncn2C2CCCCC2)n1` (top concentration 10000 nM), for which the “selective drug sensitivity score” value amounted to 4.8.

As to `O=C(O)c1ccc(-c2c[nH]c3ncc(-c4ccccc4)cc23)cc1C1CCCC1` (top concentration 10000 nM), the “selective drug sensitivity score” value is 0.96.

Consider `C[C@@H]1CN(CC(=O)Nc2ccc3c(c2)Cc2cccc(-c4cc(=O)cc(N5CCOCC5)o4)c2S3)C[C@H](C)O1` (top concentration 25000 nM), for which the “selective drug sensitivity score” value turned out to be 0.42.

As for `COc1ccc2[nH]cc(/C=C3\C(=O)Nc4ccc(NC(=O)CCN5CCCCC5)cc43)c2c1` (top concentration 50000 nM), the “selective drug sensitivity score” value is -0.02.

Take `Cc1nn(C)c(COc2ccc(N3CCN(S(=O)(=O)N(C)C)CC3)cc2)c1-c1cccc2c(CCCOc3cccc4ccccc34)c(C(=O)O)n(CCN3CCOCC3)c12` (top concentration 50000 nM): the “selective drug sensitivity score” value is 4.36.

On to `C[C@H](Nc1ncnc2[nH]cnc12)c1cc2ccc(F)cc2nc1-c1ccccn1` [AMG319] (top concentration 1000 nM), for which the “selective drug sensitivity score” value was 0.18.

As to `C=CCn1c(=O)c2cnc(Nc3ccc(N4CCN(C)CC4)cc3)nc2n1-c1cccc(C(C)(C)O)n1` [AZD1775] (top concentration 10000 nM), the “selective drug sensitivity score” value amounted to 15.4.

In the case of `NC(=O)Nc1cc(-c2cccc(F)c2)sc1C(=O)N[C@H]1CCCNC1` [AZD7762] (top concentration 1000 nM), the “selective drug sensitivity score” value worked out at 2.6.

On to `Cc1cc([C@@H](C)Nc2ccccc2C(=O)O)c2nc(N3CCOCC3)cc(=O)n2c1` [AZD-6482] (top concentration 2500 nM), for which the “selective drug sensitivity score” value was 3.12.

In the case of `CN(C)Cc1c(C(=O)NCCOc2ccc(C(=O)NO)cc2)oc2ccccc12` [Abexinostat] (top concentration 10000 nM), the “selective drug sensitivity score” value came to 6.96.

In the case of `S=C(NCc1ccc2c(c1)OCO2)N1CCN(c2ncnc3c2oc2ccccc23)CC1` [Amuvatinib] (top concentration 10000 nM), the “selective drug sensitivity score” value is 7.86.

Consider `CC(=O)OC[C@H]1O[C@@H]([S-])[C@H](OC(C)=O)[C@@H](OC(C)=O)[C@@H]1OC(C)=O.CCP(CC)CC.[Au+]` [Auranofin] (top concentration 2500 nM), for which the “selective drug sensitivity score” value was 1.94.

In another assay the test system is ALL-SIL. The assay is described as above. Particulars: 72 h.
Turning to `Cc1c(-c2ccc(N3CCc4cccc(C(=O)Nc5nc6ccccc6s5)c4C3)nc2C(=O)O)cnn1CC12CC3CC(CC(C3)C1)C2` (top concentration 1000 nM), the “selective drug sensitivity score” value turned out to be 25.1.

For `O=C(NOC[C@H](O)CO)c1ccc(F)c(F)c1Nc1ccc(I)cc1F` (top concentration 1000 nM), the “selective drug sensitivity score” value is 3.54.

For `CO[C@@H](C)Cn1c(=O)n(C)c2cnc3ccc(-c4cncc(C(C)(C)O)c4)cc3c21` (top concentration 2500 nM), the “selective drug sensitivity score” value amounted to 4.78.

As to `Cc1cccc(CC(=O)N2CCc3c2ccc(-c2cn(C)c4ncnc(N)c24)c3F)n1` (top concentration 2500 nM), the “selective drug sensitivity score” value turned out to be 0.32.

Consider `CNC(=O)c1ccccc1Nc1nc(Nc2ccc3c(c2OC)CCC[C@H](N2CCN(CCO)CC2)C3)ncc1Cl` (top concentration 5000 nM), for which the “selective drug sensitivity score” value was determined as 1.36.

In the case of `COc1cc2ncnc(Oc3cccc(NC(=O)Nc4cc(C(C)(C)C(F)(F)F)on4)c3)c2cc1OC` (top concentration 10000 nM), the “selective drug sensitivity score” value came out at 41.3.

`C[C@@H](Oc1cc(-n2cnc3ccc(CN4CCN(C)CC4)cc32)sc1C(N)=O)c1ccccc1C(F)(F)F` (top concentration 10000 nM): the “selective drug sensitivity score” value is 23.4.

`Nc1nccc(-c2c(-c3ccc(F)cc3)ncn2C2CCCCC2)n1` (top concentration 10000 nM): the “selective drug sensitivity score” value was determined as 1.5.

`O=C(O)c1ccc(-c2c[nH]c3ncc(-c4ccccc4)cc23)cc1C1CCCC1` (top concentration 10000 nM): the “selective drug sensitivity score” value was found to be 4.26.
